Laboratory results: the supplement of paper PMC11451515

Tested on: NOMO1
Assay: cell viability relative to DMSO control; higher = less cytotoxic
Settings: 48 h
Method in brief: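 Viability was expressed as a per-plate percentage of DMSO wells, with cell-free wells as background. Leukemia cells (NOMO1 or SEM at 500 cells/well, P12-Ichikawa at 1000 cells/well) were adapted for at least four passages in each medium and seeded in 1536-well plates (5 μl). Library compounds in DMSO were pin-dosed over an 11-point threefold series from 47 μM to 0.79 nM, and CellTiter-Glo One luminescence was read after 48 h at 37°C.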

[1] = HPLM + 10% dialyzed FBS, 0.000781 µM
[2] = HPLM + 10% dialyzed FBS, 0.00234 µM
[3] = HPLM + 10% dialyzed FBS, 0.00702 µM
[4] = HPLM + 10% dialyzed FBS, 0.0211 µM
[5] = HPLM + 10% dialyzed FBS, 0.0632 µM
[6] = HPLM + 10% dialyzed FBS, 0.19 µM
[7] = HPLM + 10% dialyzed FBS, 0.569 µM
[8] = HPLM + 10% dialyzed FBS, 1.71 µM
[9] = HPLM + 10% dialyzed FBS, 5.12 µM
[10] = HPLM + 10% dialyzed FBS, 15.4 µM
[11] = HPLM + 10% dialyzed FBS, 46.1 µM
[12] = RPMI 5 mM glucose + 10% FBS, 0.000781 µM
[13] = RPMI 5 mM glucose + 10% FBS, 0.00234 µM
[14] = RPMI 5 mM glucose + 10% FBS, 0.00702 µM
[15] = RPMI 5 mM glucose + 10% FBS, 0.0211 µM
[16] = RPMI 5 mM glucose + 10% FBS, 0.0632 µM
[17] = RPMI 5 mM glucose + 10% FBS, 0.19 µM
[18] = RPMI 5 mM glucose + 10% FBS, 0.569 µM
[19] = RPMI 5 mM glucose + 10% FBS, 1.71 µM
[20] = RPMI 5 mM glucose + 10% FBS, 5.12 µM
[21] = RPMI 5 mM glucose + 10% FBS, 15.4 µM
[22] = RPMI 5 mM glucose + 10% FBS, 46.1 µM
[23] = RPMI 5 mM glucose + 10% dialyzed FBS, 0.000781 µM
[24] = RPMI 5 mM glucose + 10% dialyzed FBS, 0.00234 µM
[25] = RPMI 5 mM glucose + 10% dialyzed FBS, 0.00702 µM
[26] = RPMI 5 mM glucose + 10% dialyzed FBS, 0.0211 µM
[27] = RPMI 5 mM glucose + 10% dialyzed FBS, 0.0632 µM
[28] = RPMI 5 mM glucose + 10% dialyzed FBS, 0.19 µM
[29] = RPMI 5 mM glucose + 10% dialyzed FBS, 0.569 µM
[30] = RPMI 5 mM glucose + 10% dialyzed FBS, 1.71 µM
[31] = RPMI 5 mM glucose + 10% dialyzed FBS, 5.12 µM
[32] = RPMI 5 mM glucose + 10% dialyzed FBS, 15.4 µM
[33] = RPMI 5 mM glucose + 10% dialyzed FBS, 46.1 µM

SMILES | cell viability [1] | cell viability [2] | cell viability [3] | cell viability [4] | cell viability [5] | cell viability [6] | cell viability [7] | cell viability [8] | cell viability [9] | cell viability [10] | cell viability [11] | cell viability [12] | cell viability [13] | cell viability [14] | cell viability [15] | cell viability [16] | cell viability [17] | cell viability [18] | cell viability [19] | cell viability [20] | cell viability [21] | cell viability [22] | cell viability [23] | cell viability [24] | cell viability [25] | cell viability [26] | cell viability [27] | cell viability [28] | cell viability [29] | cell viability [30] | cell viability [31] | cell viability [32] | cell viability [33]
O=C1CCC[C@@H]2[C@H]3CCC[N+]4([O-])CCC[C@@H](CN12)[C@@H]34 (some centres undefined) | 75.3% | 92.3% | 98.9% | 87.6% | 105% | 98.2% | 88.4% | 94.5% | 56.9% | 10.1% | 5.34% | 83.5% | 86.8% | 86.1% | 92.7% | 98.7% | 92% | 107% | 94.1% | 64.3% | 22% | 6.85% | 79.1% | 88.7% | 93.2% | 97.4% | 97.8% | 98.7% | 94.4% | 88.9% | 51.3% | 29.7% | 5.35%
CN[C@H]1[C@H](O[C@@H]2[C@H](O[C@@H]3[C@@H](O)[C@@H](O)[C@@H](NC(=N)N)[C@@H](O)[C@H]3NC(=N)N)O[C@H](C)[C@@]2(O)C=O)O[C@@H](CO)[C@@H](O)[C@H]1O | 117% | 115% | 118% | 111% | 130% | 120% | 101% | 96.1% | 89% | 66.9% | 23.7% | 109% | 113% | 112% | 109% | 112% | 104% | 103% | 111% | 96.6% | 101% | 26.1% | 106% | 107% | 103% | 113% | 114% | 105% | 102% | 109% | 105% | 87.1% | 26.2%
CN1CC/C(CC1)=C3\c4ccccc4CC(=O)c2sccc23 | 120% | 125% | 114% | 121% | 130% | 128% | 153% | 135% | 110% | 112% | 105% | 120% | 123% | 136% | 135% | 136% | 134% | 156% | 131% | 142% | 151% | 128% |  |  |  |  |  |  |  |  |  |  | 
CCc1c(O)cc(O)c(C(=O)c2ccc(OCCN3CCOCC3)c(OC)c2)c1CC(=O)N(CCOC)CCOC | 102% | 106% | 117% | 127% | 127% | 119% | 114% | 80.7% | 21.2% | 13.7% | 11.6% | 101% | 101% | 113% | 106% | 118% | 124% | 109% | 93.4% | 21.6% | 12.3% | 11.3% | 115% | 114% | 114% | 108% | 114% | 106% | 102% | 98.8% | 28.2% | 16.4% | 14.1%
O=[S+]([O-])(CCSSCC[S+](=O)([O-])[O][Na])[O][Na] | 110% | 104% | 132% | 124% | 120% | 112% | 133% | 125% | 135% | 129% | 141% | 107% | 115% | 125% | 119% | 127% | 123% | 125% | 129% | 147% | 130% | 142% | 107% | 112% | 126% | 130% | 121% | 122% | 125% | 139% | 134% | 144% | 127%
O=C(O)[C@@H](c1ccc(OCc2ccc3ccccc3n2)cc1)C1CCCC1 | 118% | 114% | 118% | 126% | 106% | 119% | 115% | 119% | 110% | 109% | 90.5% | 104% | 117% | 107% | 109% | 125% | 111% | 104% | 121% | 113% | 102% | 120% | 119% | 101% | 122% | 113% | 123% | 119% | 103% | 108% | 106% | 100% | 95.4%
CN1C2=CC(=O)/C(=N/NC(N)=O)C=C2CC1S(=O)(=O)[O-].[Na+] (centres undefined) | 87% | 105% | 105% | 104% | 111% | 135% | 116% | 122% | 125% | 128% | 92.5% | 108% | 109% | 111% | 115% | 117% | 128% | 120% | 117% | 122% | 116% | 111% | 105% | 112% | 114% | 111% | 118% | 126% | 124% | 123% | 128% | 119% | 103%
N#CC1(c2ccc(NC(=O)c3cccnc3NCc3ccncc3)cc2)CCCC1 | 112% | 110% | 110% | 121% | 114% | 98.4% | 108% | 95.2% | 103% | 91.4% | 93.1% | 99.5% | 106% | 99.2% | 102% | 113% | 106% | 97.8% | 104% | 103% | 105% | 98.1% | 110% | 105% | 116% | 115% | 120% | 109% | 104% | 106% | 113% | 104% | 99.8%
COc1ccccc1OCCNCC(O)COc1cccc2[nH]c3ccccc3c12 (centres undefined) | 132% | 124% | 116% | 121% | 123% | 131% | 139% | 117% | 139% | 123% | 116% | 116% | 112% | 114% | 119% | 112% | 103% | 113% | 113% | 118% | 113% | 102% | 123% | 120% | 119% | 132% | 114% | 128% | 144% | 118% | 129% | 124% | 112%
O=[N+]([O-])c1ccc(Nc2ccccc2-c2ccccc2)c2nonc12 | 87.1% | 84.3% | 100% | 92.6% | 81.9% | 100% | 97% | 101% | 106% | 89% | 98.1% | 81.5% | 89.9% | 87.9% | 91.9% | 85.3% | 92.8% | 84.4% | 102% | 95.8% | 94.2% | 89.4% | 76.3% | 82.6% | 88% | 89.8% | 92.5% | 90.2% | 89.2% | 96.1% | 87.5% | 78.2% | 88.7%
Cn1cc(-c2cnn3c(N)c(Br)c([C@@H]4CCCNC4)nc23)cn1 | 99.8% | 107% | 111% | 102% | 101% | 99% | 93.2% | 47.7% | 21.8% | 15.8% | 27.6% | 99.7% | 88% | 88.8% | 85.2% | 89.7% | 89.3% | 84.2% | 60.3% | 16.4% | 11.3% | 12.8% | 78.7% | 93.1% | 84.1% | 98.2% | 95.3% | 92.5% | 81.2% | 33.4% | 20.1% | 16.5% | 19%
C[N]1N=CC2=C1C=C(C(=C2)OC3=CC=C(NC(=O)\C4=C\C=C(\C)N(C4=O)C5=CC=C(F)C=C5)C=C3F)C6=C[NH]N=C6 | 107% | 131% | 117% | 126% | 133% | 141% | 132% | 125% | 86.1% | 25.3% | 15.6% | 113% | 112% | 111% | 121% | 127% | 107% | 116% | 118% | 104% | 16.4% | 11.9% | 121% | 117% | 118% | 108% | 122% | 125% | 124% | 115% | 100% | 30% | 16.2%
CCOc1cc(/C=C2/C(=O)N(c3ccccc3)N=C2C)cc(Cl)c1OCC(=O)OC | 86.1% | 92.5% | 93% | 93.5% | 84.4% | 95.5% | 101% | 96.3% | 87.5% | 77.6% | 85.1% | 81.8% | 80.8% | 82.1% | 89.2% | 93.6% | 89.5% | 93.3% | 88.4% | 78.4% | 91.8% | 83% | 89.2% | 88.5% | 94.9% | 85.5% | 92.6% | 102% | 85% | 82.8% | 86.7% | 84.6% | 87.5%
O=C(O)CSCC(=O)NC1CCSC1=O (centres undefined) | 122% | 112% | 105% | 95.1% | 118% | 119% | 107% | 117% | 106% | 112% | 122% | 105% | 105% | 111% | 99.8% | 110% | 116% | 114% | 102% | 108% | 105% | 104% | 104% | 95.7% | 114% | 104% | 109% | 113% | 108% | 118% | 105% | 100% | 102%
C[C@H]1C[C@H]2[C@@H]3CCC4=CC(=O)C=C[C@]4(C)[C@H]3C(=O)C[C@]2(C)[C@@]1(O)C(=O)CO | 89.9% | 80.3% | 81.2% | 103% | 86.3% | 109% | 98.9% | 96% | 86.8% | 99.8% | 83% | 82.7% | 90.2% | 86.9% | 91.6% | 80.8% | 79.9% | 81.3% | 83.8% | 86.5% | 86.3% | 92.2% | 83% | 78.4% | 77.9% | 56.5% | 78.8% | 82.4% | 99.8% | 85.1% | 94.4% | 78% | 93.2%
